Test results taken from patent US20230203560A1, “GLUCOSYL ESTERS FOR INFECTION SCREENING” (Board of Regents, The University of Texas System, priority 2020, published 2023).

Experiments:
leukocyte esterase (LE) [1] = assay: Electrochemical LE assay in human urine: glucose released from glucosyl ester, read on glucose test strip with potentiostat; type: biochemical; conditions: for sample incubation time with ester to yield enough glucose to be above the detection limit of the potentiostat/glucose strip system: human urine spiked with LE, 5.5 mM ester, glucose detection limit 5 μM
Description: (§1) The human leukocyte suspension in 154 mM NaCl solution (cat. No. MBS173116, 0.0867 mg mL^−1 leukocyte esterase (LE) protein, 4×10^8 WBC mL^−1) was purchased from MyBioSource (San Diego, Calif.). The suspension was diluted 10 times with a 90:10 vol. % mixture of 50 mM phosphate buffer saline (PBS, pH 7.40, 154 mM NaCl) solution and dimethylsulfoxide, left for 10 min to lyse the leukocytes chemically, sonicated for 30 s with a Q125 Qsonica probe (20% power) to further lyse them mechanically, and centrifuged at 15 000×g for 30 min. The resulting supernatant that contained LE was stored at −20° C.
The human synovial fluid (DLS0092658) was purchased from Discovery Life Sciences (Los Osos, Calif.) and stored at −70° C. when not in use. The clean-catch midstream portion of human urine (˜15.0 mL) was collected early in the morning in a 50.0-mL sterile centrifuge tube (Fisher Scientific, Pittsburgh, Pa.) centrifuged at 600×g for 5 min, and the supernatant was stored at −20° C. The synovial fluid and urine were spiked with known amount of LE before the analysis.
Electrochemical Measurements. The glucose strip was inserted into an electronic holder (DropSens, Llanera, Spain), which was then connected to a CHE 832B potentiostat (other potentiostats could also be used). The strip was used in a 2-electrode mode with the counter and reference electrodes connected together as a single cathode and a working electrode serving as an anode (the strip's fill-detector electrode was not used). The potential applied to a working electrode was equal to 0.15 V vs. strip's reference/counter electrode.
The 0.15 V potential was applied to a glucose strip, which was then contacted at time t=0 s with a small drop of sample (˜10 μL) that was placed on a Petri dish (FIG. 2). The amperogram obtained in such a way was integrated between t=2 and t=22 s to determine the charge Q flowing through the strip. Two charges were always determined: Q(ester) for a sample incubated with 5.5 mM ester for 5 min, and Q(no ester) for an original sample without ester. The difference in charge ΔQ [=Q(ester)−Q(no ester)] was proportional to the enzymatic activity of LE in a sample.
The samples were incubated with each ester to release glucose in the direct proportion to the enzymatic activity of LE in a sample. The released glucose was then detected at a commercial glucose test strip. A laboratory potentiostat was used to read the glucose strip. The strip was inserted in an electronic holder to facilitate the measurements (FIG. 2). Such a strip-potentiostat measuring system provided a much lower limit of glucose detection (5.0 μM, S/N=3; FIG. 3A) and a linear range at least up to 100 μM glucose (FIG. 3B), which allowed for a much shorter (minutes) incubation times (FIG. 4).

leukocyte esterase (LE) [2] = assay: Electrochemical LE assay in human synovial fluid: glucose released from glucosyl ester, read on glucose test strip with potentiostat; type: biochemical; conditions: human synovial fluid spiked with LE; 5.5 mM ester
Description: as §1
The human synovial fluid (DLS0092658) was purchased from Discovery Life Sciences (Los Osos, Calif.) and stored at −70° C. when not in use. […]
The 0.15 V potential was applied to a glucose strip, which was then contacted at time t=0 s with a small drop of sample (˜10 μL) that was placed on a Petri dish (FIG. 2). […] Two charges were always determined: Q(ester) for a sample incubated with 5.5 mM ester for 5 min, and Q(no ester) for an original sample without ester. […]
The samples were incubated with each ester to release glucose in the direct proportion to the enzymatic activity of LE in a sample. The released glucose was then detected at a commercial glucose test strip. A laboratory potentiostat was used to read the glucose strip. […]

SMILES | sample incubation time with ester to yield enough glucose to be above the detection limit of the potentiostat/glucose strip system (leukocyte esterase (LE) [1]) [min] | sample incubation time with ester before reading the glucose strip (leukocyte esterase (LE) [2]) [min] | kinetics of the enzymatic reaction of LE with the ester, compared to ester α (leukocyte esterase (LE) [1]; ascribed from longer incubation time and lower calibration slope) | calibration slope (ΔQ vs LE concentration) lower than with ester α (leukocyte esterase (LE) [1]; human urine, ester γ 10 min vs ester α 5 min incubation (FIG. 8)) [%]
Cc1ccc(S(=O)(=O)N[C@@H](C)C(=O)OCCCC(=O)O[C@@H]2O[C@H](CO)[C@@H](O)[C@H](O)[C@H]2O)cc1 [ester α, (2S,3R,4S,5S,6R)-3,4,5-trihydroxy-6-(hydroxymethyl)oxan-2-yl 4-{[(2S)-2-(4-methylbenzenesulfonamido)propanoyl]oxy}butanoate] | 5 | 5 |  | 
Cc1ccc(S(=O)(=O)N[C@@H](C)C(=O)OCCNC(=O)O[C@H]2O[C@H](CO)[C@@H](O)[C@H](O)[C@H]2O)cc1 [ester γ, 2-[({[(2R,3R,4S,5S,6R)-3,4,5-trihydroxy-6-(hydroxymethyl)oxan-2-yl]oxy}carbonyl)amino]ethyl (2S)-2-(4-methylbenzenesulfonamido)propanoate] | 10 |  | slower kinetics | ~10
